From patent US9995734B2, “Human T cell line assay for evaluating the immunologic identity of glatiramer acetate preparations” (Mylan Inc., priority 2013, dated 2018)

Tested on: Donor 1 COP T-Cell Lines
Test: Multiplex bead cytokine assay (FlowCytoMix), Donor 1 COP T-cell lines
Format: cell-based, human
Experimental: Culture medium was removed from cultures prepared as for proliferation assay and utilized to measure cytokine production. In most cases culture medium was collected 18-24 hours after mixing T-cells, APC, and stimulating antigen. Cytokine production was measured by ELISA or bead assay. For measuring cytokine production, 100-150 μL culture medium (100 μL if culture was to be continued, otherwise 150 μL) was removed from each well. In some cases, the culture was continued 48 hours, for a total of 72 hours of culture, and the proliferative response measured.
The concentration of multiple cytokines was measured simultaneously using FlowCytoMix™ kits (eBioscience, San Diego Calif.). These are fluorescent bead based assays consisting of beads conjugated to anti cytokine antibodies. Beads specific for each cytokine are distinguished by size and fluorescence at 670 run. Cytokine bound to each bead is detected using a phycoerythrin conjugated antibody so that the fluorescence at 585 nm reflects the concentration of cytokine in the sample. Two kits were utilized which measured different cytokine panels. The TH1/TH2 kit measures IFN-γ, IL-1β, IL-2, IL-4, IL-5, IL-6, IL-8, IL-10, IL-12p70, TNF-α (TNF) and TNF-β (LT). The TH1/TH2/TH9/TH17/TH22 kit measures […], IL-1β, IL-2, IL-4, IL-5, IL-6, IL-9, IL-10, IL-12p70, IL-13, IL-17, IL-22, and TNF-α (TNF). Both kits were used following the manufacturer's instructions.
IL-12p70, IFN-γ, IL-2, IL-10, IL-8, IL-6, IL-5, IL-4, IL-1β, TNF-α (TNF), and TNF-β (LT) secretion were measured in response to stimulation with 1, 3, or 10 μg/mL GMA, or 1, 3, or 10 μg/mL COP, as well as a no-antigen control and an MBP control, in the presence of autologous EBV-transformed B-LCL.

[1] = 222-1C5, 1 μg/mL, 24 hours after Day 56 restimulation
[2] = 222-1C5, 3 μg/mL, 24 hours after Day 56 restimulation
[3] = 222-1C5, 10 μg/mL, 24 hours after Day 56 restimulation
[4] = 222-1C5, 10 μg/mL, Day 34 supernatants
[5] = 222-1H12, 10 μg/mL, Day 34 supernatants
[6] = 222-2B8, 1 μg/mL, 24 hours after Day 56 restimulation
[7] = 222-2B8, 3 μg/mL, 24 hours after Day 56 restimulation
[8] = 222-2B8, 10 μg/mL, 24 hours after Day 56 restimulation
[9] = 222-2D2, 10 μg/mL, Day 34 supernatants
[10] = 222-2D8, 10 μg/mL, Day 34 supernatants
[11] = 222-2E1, 1 μg/mL, 24 hours after Day 56 restimulation
[12] = 222-2E1, 3 μg/mL, 24 hours after Day 56 restimulation
[13] = 222-2E1, 10 μg/mL, 24 hours after Day 56 restimulation
[14] = 222-B11 (so in the source), 1 μg/mL, 24 hours after Day 56 restimulation
[15] = 222-B11 (so in the source), 3 μg/mL, 24 hours after Day 56 restimulation
[16] = 222-B11 (so in the source), 10 μg/mL, 24 hours after Day 56 restimulation

glatiramer acetate [COP]
IFN-γ [1]: 158 pg/mL
IL-2 [1]: 0 pg/mL
IL-5 [1]: 0 pg/mL
IL-10 [1]: 11 pg/mL
IL-13 [1]: 129 pg/mL
IL-22 [1]: 0 pg/mL
TNF-α [1]: 11 pg/mL
IFN-γ [2]: 256 pg/mL
IL-2 [2]: 0 pg/mL
IL-5 [2]: 0 pg/mL
IL-10 [2]: 16 pg/mL
IL-13 [2]: 254 pg/mL
IL-22 [2]: 32 pg/mL
TNF-α [2]: 42 pg/mL
IFN-γ [3]: 585 pg/mL
IL-2 [3]: 40 pg/mL
IL-5 [3]: 0 pg/mL
IL-10 [3]: 49 pg/mL
IL-13 [3]: 837 pg/mL
IL-22 [3]: 42 pg/mL
TNF-α [3]: 42 pg/mL
IFN-γ [4]: 416.83 pg/mL
IL-1β [4]: <= 0 pg/mL
IL-2 [4]: <= 0 pg/mL
IL-5 [4]: 56.39 pg/mL
IL-8 [4]: <= 0 pg/mL
IL-10 [4]: 50.58 pg/mL
TNF-α [4]: <= 0 pg/mL
TNF-β [4]: 15.34 pg/mL
IFN-γ [5]: 3626 pg/mL
IL-1β [5]: 59 pg/mL
IL-2 [5]: 0 pg/mL
IL-4 [5]: 0 pg/mL
IL-5 [5]: 398 pg/mL
IL-10 [5]: 240 pg/mL
TNF-α [5]: 22 pg/mL
TNF-β [5]: 98 pg/mL
IFN-γ [6]: 8.46 pg/mL
IL-2 [6]: 0 pg/mL
IL-5 [6]: 0 pg/mL
IL-10 [6]: 2.99 pg/mL
IL-13 [6]: 204.31 pg/mL
IL-22 [6]: 83.01 pg/mL
TNF-α [6]: 0 pg/mL
IFN-γ [7]: 39.91 pg/mL
IL-2 [7]: 19.65 pg/mL
IL-5 [7]: 30.3 pg/mL
IL-10 [7]: 2.83 pg/mL
IL-13 [7]: 1028.23 pg/mL
IL-22 [7]: 77.82 pg/mL
TNF-α [7]: 0 pg/mL
IFN-γ [8]: 119.12 pg/mL
IL-2 [8]: 0 pg/mL
IL-5 [8]: 314.77 pg/mL
IL-10 [8]: 36.16 pg/mL
IL-13 [8]: 2825.8 pg/mL
IL-22 [8]: 143.57 pg/mL
TNF-α [8]: 91.29 pg/mL
IFN-γ [9]: 120 pg/mL
IL-1β [9]: 130.9 pg/mL
IL-2 [9]: 210.47 pg/mL
IL-5 [9]: 38.13 pg/mL
IL-8 [9]: 0.85 pg/mL
IL-10 [9]: 45.09 pg/mL
TNF-α [9]: 30.87 pg/mL
TNF-β [9]: 23.15 pg/mL
IL-4, IL-6, or IL-12 detected (222-2D8, 222-1H12, 222-1C5, 222-2D2, Day 34 supernatants): Little or no
IFN-γ [10]: 3296 pg/mL
IL-1β [10]: 2535 pg/mL
IL-2 [10]: 0 pg/mL
IL-4 [10]: 0 pg/mL
IL-5 [10]: 1587 pg/mL
IL-10 [10]: 100 pg/mL
TNF-α [10]: 493 pg/mL
TNF-β [10]: 267 pg/mL
IFN-γ [11]: 53.73 pg/mL
IL-2 [11]: 26.46 pg/mL
IL-5 [11]: 0 pg/mL
IL-10 [11]: 5.3 pg/mL
IL-13 [11]: 165.79 pg/mL
IL-22 [11]: 72.54 pg/mL
TNF-α [11]: 25.28 pg/mL
IFN-γ [12]: 163.61 pg/mL
IL-2 [12]: 40.39 pg/mL
IL-5 [12]: 0 pg/mL
IL-10 [12]: 12.19 pg/mL
IL-13 [12]: 1037.93 pg/mL
IL-22 [12]: 40.37 pg/mL
TNF-α [12]: 0 pg/mL
IFN-γ [13]: 405.26 pg/mL
IL-2 [13]: 0 pg/mL
IL-5 [13]: 106.24 pg/mL
IL-10 [13]: 22 pg/mL
IL-13 [13]: 2046.94 pg/mL
IL-22 [13]: 60.95 pg/mL
TNF-α [13]: 333.22 pg/mL
IFN-γ [14]: 0.65 pg/mL
IL-2 [14]: 63.02 pg/mL
IL-5 [14]: 0 pg/mL
IL-10 [14]: 0 pg/mL
IL-13 [14]: 47.69 pg/mL
IL-22 [14]: 69.37 pg/mL
TNF-α [14]: 0 pg/mL
IFN-γ [15]: 0 pg/mL
IL-2 [15]: 0 pg/mL
IL-5 [15]: 0 pg/mL
IL-10 [15]: 0 pg/mL
IL-13 [15]: 105.51 pg/mL
IL-22 [15]: 45.67 pg/mL
TNF-α [15]: 0 pg/mL
IFN-γ [16]: 47.35 pg/mL
IL-2 [16]: 0 pg/mL
IL-5 [16]: 119 pg/mL
IL-10 [16]: 11.27 pg/mL
IL-13 [16]: 1839.63 pg/mL
IL-22 [16]: 19.45 pg/mL
TNF-α [16]: 13.51 pg/mL
IFN-γ production (Line 105 (so in the source), Table 14 = 222-1C5, after appropriate dilution of supernatants): comparable amounts
